Data taken from ChEMBL document CHEMBL4814078, “Novel CFTR Modulators for Treating Cystic Fibrosis” (ACS Med Chem Lett, 2021).

Target: Cystic fibrosis transmembrane conductance regulator (Homo sapiens, UniProt P13569)
Assay: Potentiation of CFTR in primary human epithelial enteroid cells assessed as chloride transport in presence of forskolin by measuring membrane potential incubated for 18 to 24 hrs by FLIPR Tetra based dye assay
Assay type: tissue-based, Epithelial cell

Sequence of Cystic fibrosis transmembrane conductance regulator (P13569 whole entry): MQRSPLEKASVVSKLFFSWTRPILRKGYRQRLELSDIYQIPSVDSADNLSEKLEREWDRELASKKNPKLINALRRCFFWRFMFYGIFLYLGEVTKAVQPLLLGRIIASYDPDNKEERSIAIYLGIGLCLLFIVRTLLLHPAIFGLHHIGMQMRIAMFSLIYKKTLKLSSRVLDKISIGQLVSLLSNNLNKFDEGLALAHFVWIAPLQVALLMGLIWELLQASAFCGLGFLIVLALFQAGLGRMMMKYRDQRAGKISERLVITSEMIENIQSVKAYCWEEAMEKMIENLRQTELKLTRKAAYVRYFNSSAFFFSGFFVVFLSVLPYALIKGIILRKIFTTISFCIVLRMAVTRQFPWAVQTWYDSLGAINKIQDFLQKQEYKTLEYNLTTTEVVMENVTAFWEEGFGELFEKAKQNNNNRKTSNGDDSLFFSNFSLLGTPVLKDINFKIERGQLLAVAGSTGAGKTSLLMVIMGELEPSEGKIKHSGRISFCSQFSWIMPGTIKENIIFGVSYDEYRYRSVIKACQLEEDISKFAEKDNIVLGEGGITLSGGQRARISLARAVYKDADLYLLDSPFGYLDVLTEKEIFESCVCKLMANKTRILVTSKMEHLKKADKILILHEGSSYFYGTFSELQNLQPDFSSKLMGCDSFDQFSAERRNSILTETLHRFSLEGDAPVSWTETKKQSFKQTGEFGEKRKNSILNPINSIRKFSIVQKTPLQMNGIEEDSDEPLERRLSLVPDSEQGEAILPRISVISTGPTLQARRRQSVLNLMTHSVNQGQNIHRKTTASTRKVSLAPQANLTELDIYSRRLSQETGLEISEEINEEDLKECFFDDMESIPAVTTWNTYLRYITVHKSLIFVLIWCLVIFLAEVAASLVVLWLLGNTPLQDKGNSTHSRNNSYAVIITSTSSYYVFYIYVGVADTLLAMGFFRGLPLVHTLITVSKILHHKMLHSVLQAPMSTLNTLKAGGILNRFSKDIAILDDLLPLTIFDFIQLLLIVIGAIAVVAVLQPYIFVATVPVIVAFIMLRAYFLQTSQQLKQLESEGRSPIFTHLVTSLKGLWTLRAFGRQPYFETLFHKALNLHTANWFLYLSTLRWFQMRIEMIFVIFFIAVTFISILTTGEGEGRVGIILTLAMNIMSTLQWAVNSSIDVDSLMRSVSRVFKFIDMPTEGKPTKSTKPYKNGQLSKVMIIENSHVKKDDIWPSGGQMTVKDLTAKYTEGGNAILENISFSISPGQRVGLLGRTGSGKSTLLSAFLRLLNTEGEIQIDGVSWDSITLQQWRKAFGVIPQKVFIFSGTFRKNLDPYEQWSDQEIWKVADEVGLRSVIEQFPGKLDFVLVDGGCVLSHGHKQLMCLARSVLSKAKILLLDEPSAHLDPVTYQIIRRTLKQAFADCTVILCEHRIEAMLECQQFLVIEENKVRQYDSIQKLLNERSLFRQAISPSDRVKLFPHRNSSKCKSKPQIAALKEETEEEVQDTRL

CC1(C)C[C@@H]2CCCNc3cccc(n3)S(=O)(=O)NC(=O)c3ccc(-n4ccc(OCCC[Si](C)(C)C)n4)nc3N1C2
EC50: < 1 µM

CC1(C)C[C@@H]2CCCNc3cccc(n3)S(=O)(=O)NC(=O)c3ccc(-n4ccc(OC[Si](C)(C)C)n4)nc3N1C2
EC50: < 1 µM

CC1(C)C[C@@H]2CCCNc3cccc(n3)S(=O)(=O)NC(=O)c3ccc(-n4ccc(OCCC5([Si](C)(C)C)CC5)n4)nc3N1C2
EC50: < 1 µM

CC1(C)C[C@@H]2CCCNc3cccc(n3)S(=O)(=O)NC(=O)c3ccc(-n4ccc(OC[Si](C)(C)C5(C(F)(F)F)CC5)n4)nc3N1C2
EC50: < 1 µM

CC1(C)C[C@@H]2CCCNc3cccc(n3)S(=O)(=O)NC(=O)c3ccc(-n4ccc(OCC[Si](C)(C)C)n4)nc3N1C2
EC50: < 1 µM

CC(C)(C)CC[Si](C)(C)c1ccn(-c2ccc3c(n2)N2C[C@@H](CCCNc4cccc(n4)S(=O)(=O)NC3=O)CC2(C)C)n1
EC50: < 1 µM
